What was measured:
TBK1 = target: T1, TBK1 (Homo sapiens, UniProt Q9UHD2); experiment: TR-FRET enzymatic activity assay, TBK1; format: biochemical; also: full length recombinant TBK1 at 2.5 nM
T1 construct: TBK1 and IKKε were expressed and purified as full length recombinant proteins; made in house
T1 sequence (Q9UHD2 1-729): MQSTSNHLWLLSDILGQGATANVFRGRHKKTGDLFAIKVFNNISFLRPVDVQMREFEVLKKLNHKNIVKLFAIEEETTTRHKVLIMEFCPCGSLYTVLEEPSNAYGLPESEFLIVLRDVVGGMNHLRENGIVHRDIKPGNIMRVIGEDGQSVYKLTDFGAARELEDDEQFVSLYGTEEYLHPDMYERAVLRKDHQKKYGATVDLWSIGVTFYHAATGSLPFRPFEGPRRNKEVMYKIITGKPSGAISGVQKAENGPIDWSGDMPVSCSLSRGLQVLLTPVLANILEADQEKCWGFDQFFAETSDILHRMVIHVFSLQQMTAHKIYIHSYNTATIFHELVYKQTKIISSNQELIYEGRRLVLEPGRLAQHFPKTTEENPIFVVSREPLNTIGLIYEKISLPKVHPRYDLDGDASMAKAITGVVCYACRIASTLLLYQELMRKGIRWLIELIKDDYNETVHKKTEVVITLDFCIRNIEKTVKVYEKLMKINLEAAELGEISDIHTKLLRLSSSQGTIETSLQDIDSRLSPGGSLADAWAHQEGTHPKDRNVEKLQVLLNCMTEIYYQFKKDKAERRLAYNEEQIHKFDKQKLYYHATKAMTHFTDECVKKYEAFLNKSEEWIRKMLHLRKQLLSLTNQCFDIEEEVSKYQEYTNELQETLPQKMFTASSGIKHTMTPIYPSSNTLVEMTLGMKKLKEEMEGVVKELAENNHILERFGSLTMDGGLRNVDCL
Summary of the method: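 Full-length recombinant enzymes phosphorylated a biotinylated Ser/Thr peptide for 240 min at 25 °C, stopped with EDTA. Phosphopeptide detected by TR-FRET (streptavidin XL665, Eu-cryptate anti-phospho antibody). IC50 from four-parameter fits normalized to 1 μM staurosporine and DMSO controls, as geometric means of at least four determinations.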

IKKε = target: T2, IKKε (Homo sapiens, UniProt Q14164); experiment: TR-FRET enzymatic activity assay, IKKε; format: biochemical; conditions: read-out: IKKϵ IC50; also: full length recombinant IKKε at 0.3 nM
T2 construct: TBK1 and IKKε were expressed and purified as full length recombinant proteins; made in house
T2 sequence (Q14164 1-716): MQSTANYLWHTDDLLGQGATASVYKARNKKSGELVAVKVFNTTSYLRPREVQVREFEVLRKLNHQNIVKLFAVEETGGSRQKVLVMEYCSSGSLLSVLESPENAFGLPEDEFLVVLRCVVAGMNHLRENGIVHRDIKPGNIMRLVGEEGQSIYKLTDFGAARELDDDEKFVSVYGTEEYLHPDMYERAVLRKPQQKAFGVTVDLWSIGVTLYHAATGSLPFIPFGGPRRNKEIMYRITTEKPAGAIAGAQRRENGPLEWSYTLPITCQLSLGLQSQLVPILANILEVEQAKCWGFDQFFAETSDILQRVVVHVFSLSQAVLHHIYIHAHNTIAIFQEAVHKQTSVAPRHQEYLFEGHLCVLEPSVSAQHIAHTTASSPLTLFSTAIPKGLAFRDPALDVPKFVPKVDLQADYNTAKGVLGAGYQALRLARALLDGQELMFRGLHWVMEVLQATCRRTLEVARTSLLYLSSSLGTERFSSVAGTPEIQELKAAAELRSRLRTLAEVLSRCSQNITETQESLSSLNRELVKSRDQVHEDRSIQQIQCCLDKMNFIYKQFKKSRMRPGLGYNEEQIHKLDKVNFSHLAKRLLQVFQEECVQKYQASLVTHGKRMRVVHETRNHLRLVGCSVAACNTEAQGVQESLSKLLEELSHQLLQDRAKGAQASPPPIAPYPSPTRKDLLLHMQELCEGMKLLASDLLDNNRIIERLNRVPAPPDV
Summary of the method: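 Full-length recombinant IKKε phosphorylated a biotinylated Ser/Thr peptide for 240 min at 25 °C; EDTA stop. Phospho-peptide detected by TR-FRET with streptavidin-XL665 (125 nM) and Eu-cryptate anti-phospho antibody. Normalised to staurosporine and DMSO controls; IC50 from four-parameter fit, geometric mean of ≥4 runs.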

| IC50 (TBK1) | IC50 (IKKε) | SMILES |
| --- | --- | --- |
| 7.2 nM | 7.4 nM | Cc1n[nH]c(C(=O)N2CC[C@H](Oc3ccc(-c4cc(NC(=O)C5CC5)ncn4)cc3C#N)[C@H](F)C2)n1 [Example 30, N-(6-(3-cyano-4-(((3R,4S)-3-fluoro-1-(3-methyl-1H-1,2,4-triazole-5-carbonyl)piperidin-4-yl)oxy)phenyl)pyrimidin-4-yl)cyclopropanecarboxamide] |
| 4.2 nM | 7.4 nM | N#Cc1cc(-c2ccnc(NC(=O)C3CC3)c2)ccc1O[C@H]1CCN(C(=O)CO)CC1(F)F [Example 10, (S)—N-(4-(3-cyano-4-((3,3-difluoro-1-(2-hydroxyacetyl)piperidin-4-yl)oxy)phenyl)pyridin-2-yl)cyclopropanecarboxamide] |
| 107 nM | 209 nM | C[C@H]1C[C@@H](Oc2ccc(-c3cc(NC(=O)C4CC4)ncn3)cc2C#N)CCN1C(=O)CO [Example 112, N-(6-(3-cyano-4-(((2S,4S)-1-(2-hydroxyacetyl)-2-methylpiperidin-4-yl)oxy)phenyl)pyrimidin-4-yl)cyclopropanecarboxamide] |
| 51.4 nM | 117 nM | N#Cc1cc(-c2ccnc(NC(=O)[C@@H]3C[C@@H]3c3ccccc3)c2)ccc1O[C@H]1CCN(C(=O)CO)C[C@H]1F (stereo in doubt) [Example 71, (1,2-cis)-N-(4-(3-Cyano-4-(((3R,4S)-3-fluoro-1-(2-hydroxyacetyl)piperidin-4-yl)oxy)phenyl)pyridin-2-yl)-2-phenylcyclopropane-1-carboxamide] |
| 4.8 nM | 9.5 nM | N#Cc1cc(-c2cc(NC(=O)C3CC3)ncn2)ccc1O[C@H]1CCN(C(=O)CO)CC1(F)F [Example 20, (S)—N-(6-(3-cyano-4-((3,3-difluoro-1-(2-hydroxyacetyl)piperidin-4-yl)oxy)phenyl)pyrimidin-4-yl)cyclopropanecarboxamide] |
| 7 nM | 52.6 nM | N#Cc1cc(-c2cc(NC(=O)C3CC3)ncn2)ccc1O[C@H]1CCN(C(=O)[C@@H]2COC(=O)N2)CC1(F)F [Example 155, N-(6-(3-cyano-4-(((S)-3,3-difluoro-1-((S)-2-oxooxazolidine-4-carbonyl)piperidin-4-yl)oxy)phenyl)pyrimidin-4-yl)cyclopropanecarboxamide] |
| 883 nM | > 1000 nM | N#Cc1cc(-c2cc(NC(=O)C3CC3)ncn2)ccc1C(=O)NCC(F)(F)F [Example 54, 2-cyano-4-(6-(cyclopropanecarboxamido)pyrimidin-4-yl)-N-(2,2,2-trifluoroethyl)benzamide] |
| 6 nM | 4.9 nM | Cn1cc([C@H]2C[C@@H]2C(=O)Nc2cc(-c3ccc(O[C@H]4CCN(C(=O)CO)CC4(F)F)c(C#N)c3)ccn2)cn1 [Example 122, (1S, 2S)—N-(4-(3-cyano-4-(((S)-3,3-difluoro-1-(2-hydroxyacetyl)piperidin-4-yl)oxy)phenyl)pyridin-2-yl)-2-(1-methyl-1H-pyrazol-4-yl)cyclopropane-1-carboxamide] |
| 111 nM | 75.2 nM | N#Cc1cc(-c2ccnc(NC(=O)[C@H]3C[C@H](O)C3)c2)ccc1O[C@H]1CCN(C(=O)CO)C[C@H]1F [Example 80, (1,3-trans)-N-(4-(3-Cyano-4-(((3R,4S)-3-fluoro-1-(2-hydroxyacetyl)piperidin-4-yl)oxy)phenyl)pyridin-2-yl)-3-hydroxycyclobutane-1-carboxamide] |
| 7.2 nM | 6.2 nM | Cn1cc([C@@H]2C[C@H]2C(=O)Nc2cc(-c3ccc(O[C@H]4CCN(C(=O)CO)CC4(F)F)c(C#N)c3)ccn2)cn1 [Example 121, (1R,2R)—N-(4-(3-cyano-4-(((S)-3,3-difluoro-1-(2-hydroxyacetyl)piperidin-4-yl)oxy)phenyl)pyridin-2-yl)-2-(1-methyl-1H-pyrazol-4-yl)cyclopropane-1-carboxamide] |
| 46.6 nM | 128 nM | N#Cc1cc(-c2cc(NC(=O)C3CC3)ncn2)ccc1O[C@H]1CCN(C=O)C[C@H]1F [Example 29, N-(6-(3-cyano-4-(((3R,4S)-3-fluoro-1-formylpiperidin-4-yl)oxy)phenyl)pyrimidin-4-yl)cyclopropanecarboxamide] |
| 43.6 nM | 327 nM | N#Cc1cc(-c2cc(NC(=O)C3CC3)ncc2F)ccc1OC1CCOCC1 [Example 4, N-(4-(3-cyano-4-((tetrahydro-2H-pyran-4-yl)oxy)phenyl)-5-fluoropyridin-2-yl)cyclopropanecarboxamide] |
| 12.4 nM | 44 nM | N#CCC(=O)N1CC[C@H](Oc2ccc(-c3ccnc(NC(=O)C4CC4)c3)cc2C#N)C(F)(F)C1 [Example 13, (S)—N-(4-(3-cyano-4-((1-(2-cyanoacetyl)-3,3-difluoropiperidin-4-yl)oxy)phenyl)pyridin-2-yl)cyclopropanecarboxamide] |
| 23.2 nM | 84.2 nM | N#Cc1cc(-c2ccnc(NC(=O)C3CC3)c2)ccc1O[C@H]1CCN(C(=O)CCO)CC1(F)F [Example 15, (S)—N-(4-(3-cyano-4-((3,3-difluoro-1-(3-hydroxypropanoyl)piperidin-4-yl)oxy)phenyl)pyridin-2-yl)cyclopropanecarboxamide] |
| 15.9 nM | 99.2 nM | N#Cc1cc(-c2ccnc(NC(=O)[C@@H]3C[C@H]3c3cncnc3)c2)ccc1O[C@H]1CCN(C(=O)CO)C[C@H]1F [Example 149, (1,2-Trans)-N-(4-(3-cyano-4-(((3R,4S)-3-fluoro-1-(2-hydroxyacetyl)piperidin-4-yl)oxy)phenyl)pyridin-2-yl)-2-(pyrimidin-5-yl)cyclopropane-1-carboxamide] |
| 305 nM | 253 nM | CON(C)C(=O)[C@@H]1C[C@H]1C(=O)Nc1cc(-c2ccc(OC3CCOCC3)c(C#N)c2)ccn1 (relative stereo) [Example 38] |
| 7.4 nM | 10.9 nM | N#Cc1cc(-c2ccnc(NC(=O)[C@@H]3C[C@H]3c3cccnc3)c2)ccc1O[C@H]1CCN(C(=O)CO)CC1(F)F [Example 134, (1,2-Trans)-N-(4-(3-cyano-4-(((S)-3,3-difluoro-1-(2-hydroxyacetyl)piperidin-4-yl)oxy)phenyl)pyridin-2-yl)-2-(pyridin-3-yl)cyclopropane-1-carboxamide] |
| 57.8 nM | 426 nM | N#Cc1cc(-c2ccnc(NC(=O)C3CC3c3ccco3)c2)ccc1OC1CCOCC1 (stereo not drawn) [Example 51, N-(4-(3-cyano-4-((tetrahydro-2H-pyran-4-yl)oxy)phenyl)pyridin-2-yl)-2-(furan-2-yl)cyclopropane-1-carboxamide] |
| 317 nM | 737 nM | N#Cc1cc(-c2cc(NC(=O)C3CC3)ncn2)ccc1O[C@@H]1CCN(C(=O)CO)CC1(F)F [Example 110, (R)—N-(6-(3-cyano-4-((3,3-difluoro-1-(2-hydroxyacetyl)piperidin-4-yl)oxy)phenyl)pyrimidin-4-yl)cyclopropanecarboxamide] |
| 181 nM | 471 nM | N#Cc1cc(-c2ccnc(NC(=O)[C@@H]3C[C@H]3C#N)c2)ccc1OC1CCOCC1 (relative stereo) [Example 116, (1,2-Trans)-2-cyano-N-(4-(3-cyano-4-((tetrahydro-2H-pyran-4-yl)oxy)phenyl)pyridin-2-yl)cyclopropane-1-carboxamide] |
| > 1000 nM | > 1000 nM | N#Cc1cc(-c2ccnc(NC(=O)C3(O)CC3)c2)ccc1OC1CCOCC1 [Example 36, N-(4-(3-cyano-4-((tetrahydro-2H-pyran-4-yl)oxy)phenyl)pyridin-2-yl)-1-hydroxycyclopropanecarboxamide] |
